Assay results: the kinase profiling compilation of Christmann-Franck et al. (2016)

What was measured:
Assay in all cases: KINOMEscan competition binding
Conditions in all cases: compound 10.0 µM
FYN (human) = FYN (human) (UniProt P06241)
MYO3B (human) = MYO3B (human) (UniProt Q8WXR4)
PIP4K2C (human) = PIP4K2C (human) (UniProt Q8TBX8)
PDGFRB (human) = PDGFRB (human) (UniProt P09619)
SRPK3 (human) = SRPK3 (human) (UniProt Q9UPE1)
EPHA4 (human) = EPHA4 (human) (UniProt P54764)
TEK (human) = TEK (human) (UniProt Q02763)
CDK13 (human) = CDK13 (human) (UniProt Q14004)
SRPK2 (human) = SRPK2 (human) (UniProt P78362)
ERBB3 (human) = ERBB3 (human) (UniProt P21860)
BLK (human) = BLK (human) (UniProt P51451)
[1] = target: TYK2 JH2 pseudokinase (human) (UniProt P29597)
DYRK1B (human) = DYRK1B (human) (UniProt Q9Y463)
DYRK1B (human), sequence (Q9Y463 whole entry, looked up): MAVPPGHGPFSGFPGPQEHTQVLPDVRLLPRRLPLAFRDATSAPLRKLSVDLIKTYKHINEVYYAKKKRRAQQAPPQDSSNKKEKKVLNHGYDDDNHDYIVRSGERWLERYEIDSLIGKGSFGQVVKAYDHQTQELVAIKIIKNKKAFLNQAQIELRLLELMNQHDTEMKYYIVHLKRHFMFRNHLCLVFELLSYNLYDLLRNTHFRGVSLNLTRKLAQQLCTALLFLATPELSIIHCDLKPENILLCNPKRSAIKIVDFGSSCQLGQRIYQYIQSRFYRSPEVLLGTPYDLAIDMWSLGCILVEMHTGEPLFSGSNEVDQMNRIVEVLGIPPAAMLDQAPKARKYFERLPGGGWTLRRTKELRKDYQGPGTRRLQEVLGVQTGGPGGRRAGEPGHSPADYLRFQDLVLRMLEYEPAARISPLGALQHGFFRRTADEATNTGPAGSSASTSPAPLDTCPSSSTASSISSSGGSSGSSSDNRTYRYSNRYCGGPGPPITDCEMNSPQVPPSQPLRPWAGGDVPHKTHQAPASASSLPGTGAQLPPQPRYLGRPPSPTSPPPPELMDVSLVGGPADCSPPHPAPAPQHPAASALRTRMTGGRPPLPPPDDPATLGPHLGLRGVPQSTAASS

AURKB (human) = AURKB (human) (UniProt Q96GD4)
MARK2 (human) = MARK2 (human) (UniProt Q7KZI7)
NTRK3 (human) = NTRK3 (human) (UniProt Q16288)
TSSK1B (human) = TSSK1B (human) (UniProt Q9BXA7)
NTRK1 (human) = NTRK1 (human) (UniProt P04629)
NTRK1 (human), sequence (P04629 whole entry, looked up): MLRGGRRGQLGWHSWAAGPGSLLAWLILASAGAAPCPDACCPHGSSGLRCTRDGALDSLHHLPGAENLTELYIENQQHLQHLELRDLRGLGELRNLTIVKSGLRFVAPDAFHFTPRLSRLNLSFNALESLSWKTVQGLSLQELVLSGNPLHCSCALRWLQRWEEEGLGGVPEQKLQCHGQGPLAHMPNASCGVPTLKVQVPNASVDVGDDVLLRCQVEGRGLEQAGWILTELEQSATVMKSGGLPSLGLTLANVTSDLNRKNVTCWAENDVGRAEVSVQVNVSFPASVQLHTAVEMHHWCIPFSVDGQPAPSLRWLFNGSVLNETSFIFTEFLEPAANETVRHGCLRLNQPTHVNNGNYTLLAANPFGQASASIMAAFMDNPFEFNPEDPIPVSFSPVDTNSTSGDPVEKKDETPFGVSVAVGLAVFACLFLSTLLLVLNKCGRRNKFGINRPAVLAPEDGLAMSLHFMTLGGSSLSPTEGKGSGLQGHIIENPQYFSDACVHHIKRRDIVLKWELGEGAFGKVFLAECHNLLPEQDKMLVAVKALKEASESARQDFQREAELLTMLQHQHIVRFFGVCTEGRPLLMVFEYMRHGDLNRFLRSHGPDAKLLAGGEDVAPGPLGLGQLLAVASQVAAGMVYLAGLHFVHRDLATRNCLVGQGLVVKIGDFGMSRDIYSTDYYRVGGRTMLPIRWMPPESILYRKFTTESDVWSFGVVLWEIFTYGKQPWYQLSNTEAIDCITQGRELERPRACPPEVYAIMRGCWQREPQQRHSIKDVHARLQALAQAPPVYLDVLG

CASK (human) = CASK (human) (UniProt O14936)
EPHB3 (human) = EPHB3 (human) (UniProt P54753)
CAMK1G (human) = CAMK1G (human) (UniProt Q96NX5)
SNRK (human) = SNRK (human) (UniProt Q9NRH2)
SNRK (human), sequence (Q9NRH2 whole entry, looked up): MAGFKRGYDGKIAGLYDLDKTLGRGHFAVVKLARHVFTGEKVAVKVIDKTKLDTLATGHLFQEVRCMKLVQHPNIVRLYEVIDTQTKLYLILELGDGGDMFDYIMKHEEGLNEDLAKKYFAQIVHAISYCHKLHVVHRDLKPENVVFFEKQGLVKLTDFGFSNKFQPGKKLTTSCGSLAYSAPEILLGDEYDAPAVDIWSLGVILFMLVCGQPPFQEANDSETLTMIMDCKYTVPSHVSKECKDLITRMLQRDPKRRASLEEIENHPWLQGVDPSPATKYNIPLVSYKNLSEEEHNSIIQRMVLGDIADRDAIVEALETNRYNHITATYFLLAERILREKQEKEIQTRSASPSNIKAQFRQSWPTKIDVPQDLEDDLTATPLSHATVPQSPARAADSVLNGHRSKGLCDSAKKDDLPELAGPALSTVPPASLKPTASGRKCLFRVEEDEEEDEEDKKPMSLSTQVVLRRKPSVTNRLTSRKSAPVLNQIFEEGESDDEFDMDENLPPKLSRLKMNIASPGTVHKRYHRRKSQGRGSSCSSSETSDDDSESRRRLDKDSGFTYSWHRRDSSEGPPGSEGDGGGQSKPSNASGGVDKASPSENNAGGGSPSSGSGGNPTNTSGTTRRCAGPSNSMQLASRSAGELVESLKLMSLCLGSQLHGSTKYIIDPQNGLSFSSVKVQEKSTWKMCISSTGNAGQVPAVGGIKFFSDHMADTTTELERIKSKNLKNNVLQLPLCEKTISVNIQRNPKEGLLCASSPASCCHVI

SIK3 (human) = SIK3 (human) (UniProt Q9Y2K2)
YSK4 (human) = YSK4 (human) (UniProt Q56UN5)
YSK4 (human), sequence (Q56UN5 whole entry, looked up): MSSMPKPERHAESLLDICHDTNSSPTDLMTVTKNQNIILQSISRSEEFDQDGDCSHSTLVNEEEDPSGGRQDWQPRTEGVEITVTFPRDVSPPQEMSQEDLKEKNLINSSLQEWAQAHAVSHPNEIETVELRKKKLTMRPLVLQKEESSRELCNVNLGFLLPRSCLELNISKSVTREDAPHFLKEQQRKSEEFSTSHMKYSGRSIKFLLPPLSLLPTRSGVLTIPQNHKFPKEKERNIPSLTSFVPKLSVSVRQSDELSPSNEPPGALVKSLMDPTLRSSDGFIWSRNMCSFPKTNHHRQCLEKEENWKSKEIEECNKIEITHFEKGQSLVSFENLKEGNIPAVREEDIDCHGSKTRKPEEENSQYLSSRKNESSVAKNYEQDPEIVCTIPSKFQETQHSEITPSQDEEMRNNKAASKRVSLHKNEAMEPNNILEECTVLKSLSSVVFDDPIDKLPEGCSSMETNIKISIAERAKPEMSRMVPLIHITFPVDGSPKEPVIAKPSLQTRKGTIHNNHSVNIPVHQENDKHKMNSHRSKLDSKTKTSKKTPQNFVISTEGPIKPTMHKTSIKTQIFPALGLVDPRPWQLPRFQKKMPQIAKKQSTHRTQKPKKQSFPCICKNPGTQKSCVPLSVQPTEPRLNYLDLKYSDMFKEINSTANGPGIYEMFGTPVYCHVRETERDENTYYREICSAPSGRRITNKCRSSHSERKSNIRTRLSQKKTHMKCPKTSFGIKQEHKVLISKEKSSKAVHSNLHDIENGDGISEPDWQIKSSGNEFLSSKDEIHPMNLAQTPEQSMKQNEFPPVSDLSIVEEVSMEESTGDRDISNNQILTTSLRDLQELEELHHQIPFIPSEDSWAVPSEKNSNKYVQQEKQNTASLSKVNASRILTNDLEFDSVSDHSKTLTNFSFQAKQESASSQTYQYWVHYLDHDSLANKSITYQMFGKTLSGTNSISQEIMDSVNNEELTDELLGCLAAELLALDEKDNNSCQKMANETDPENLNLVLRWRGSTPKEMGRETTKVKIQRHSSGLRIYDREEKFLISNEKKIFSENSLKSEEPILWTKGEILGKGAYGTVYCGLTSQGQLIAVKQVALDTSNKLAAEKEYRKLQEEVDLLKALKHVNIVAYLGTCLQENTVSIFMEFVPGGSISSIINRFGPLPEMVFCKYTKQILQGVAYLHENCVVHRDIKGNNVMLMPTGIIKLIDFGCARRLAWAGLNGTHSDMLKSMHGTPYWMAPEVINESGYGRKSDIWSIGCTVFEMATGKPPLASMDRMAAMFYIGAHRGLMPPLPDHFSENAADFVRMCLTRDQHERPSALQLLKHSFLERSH

AKT1 (human) = AKT1 (human) (UniProt P31749)
DSTYK (human) = DSTYK (human) (UniProt Q6XUX3)
DSTYK (human), sequence (Q6XUX3 whole entry, looked up): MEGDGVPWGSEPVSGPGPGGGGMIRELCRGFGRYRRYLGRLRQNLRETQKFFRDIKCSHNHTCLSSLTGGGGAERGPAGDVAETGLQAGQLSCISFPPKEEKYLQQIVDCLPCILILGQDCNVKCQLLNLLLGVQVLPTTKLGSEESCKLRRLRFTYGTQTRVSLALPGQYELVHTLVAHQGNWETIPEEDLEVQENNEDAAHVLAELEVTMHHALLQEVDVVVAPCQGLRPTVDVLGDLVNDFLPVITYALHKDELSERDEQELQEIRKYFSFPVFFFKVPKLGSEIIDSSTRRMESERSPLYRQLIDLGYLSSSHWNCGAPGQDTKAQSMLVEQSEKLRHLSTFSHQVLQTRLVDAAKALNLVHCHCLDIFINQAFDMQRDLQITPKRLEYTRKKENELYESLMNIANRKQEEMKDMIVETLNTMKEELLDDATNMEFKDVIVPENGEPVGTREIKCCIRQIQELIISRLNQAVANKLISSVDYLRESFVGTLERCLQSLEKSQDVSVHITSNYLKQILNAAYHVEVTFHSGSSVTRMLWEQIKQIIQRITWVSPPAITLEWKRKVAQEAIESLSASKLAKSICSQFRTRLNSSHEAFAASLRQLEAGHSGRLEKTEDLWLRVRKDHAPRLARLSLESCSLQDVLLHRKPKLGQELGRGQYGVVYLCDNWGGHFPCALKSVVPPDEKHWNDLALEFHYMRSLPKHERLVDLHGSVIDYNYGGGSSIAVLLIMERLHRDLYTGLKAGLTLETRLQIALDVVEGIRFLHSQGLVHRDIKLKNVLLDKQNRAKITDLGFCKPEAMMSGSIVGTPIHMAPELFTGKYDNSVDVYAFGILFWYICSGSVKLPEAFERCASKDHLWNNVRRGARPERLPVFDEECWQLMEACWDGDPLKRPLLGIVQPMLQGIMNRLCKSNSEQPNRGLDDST

NEK3 (human) = NEK3 (human) (UniProt P51956)
CLK2 (human) = CLK2 (human) (UniProt P49760)
MAP4K1 (human) = MAP4K1 (human) (UniProt Q92918)
ACVR2A (human) = ACVR2A (human) (UniProt P27037)
PTK2 (human) = PTK2 (human) (UniProt Q05397)
PTK6 (human) = PTK6 (human) (UniProt Q13882)
EPHA7 (human) = EPHA7 (human) (UniProt Q15375)
MAP4K2 (human) = MAP4K2 (human) (UniProt Q12851)
MAP2K2 (human) = MAP2K2 (human) (UniProt P36507)
RIOK2 (human) = RIOK2 (human) (UniProt Q9BVS4)
AAK1 (human) = AAK1 (human) (UniProt Q2M2I8)
CSNK1E (human) = CSNK1E (human) (UniProt P49674)
DMPK (human) = DMPK (human) (UniProt Q09013)
DMPK (human), sequence (Q09013 whole entry, looked up): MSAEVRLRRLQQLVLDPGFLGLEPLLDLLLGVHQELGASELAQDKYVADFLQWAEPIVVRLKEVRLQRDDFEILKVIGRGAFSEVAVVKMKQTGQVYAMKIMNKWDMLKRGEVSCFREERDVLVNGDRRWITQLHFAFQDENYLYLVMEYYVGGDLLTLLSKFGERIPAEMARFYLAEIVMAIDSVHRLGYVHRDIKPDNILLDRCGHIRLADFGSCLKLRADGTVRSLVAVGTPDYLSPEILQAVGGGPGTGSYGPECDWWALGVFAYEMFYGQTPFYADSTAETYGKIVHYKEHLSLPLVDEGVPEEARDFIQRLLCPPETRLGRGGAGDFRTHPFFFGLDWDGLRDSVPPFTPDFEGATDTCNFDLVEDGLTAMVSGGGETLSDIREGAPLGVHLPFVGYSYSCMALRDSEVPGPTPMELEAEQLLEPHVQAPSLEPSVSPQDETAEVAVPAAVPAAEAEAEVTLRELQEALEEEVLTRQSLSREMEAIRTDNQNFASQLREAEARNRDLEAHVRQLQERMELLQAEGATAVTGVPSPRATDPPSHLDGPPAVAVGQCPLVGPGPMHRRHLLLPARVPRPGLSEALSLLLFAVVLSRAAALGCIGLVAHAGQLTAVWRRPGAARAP

ABL2 (human) = ABL2 (human) (UniProt P42684)

CN(C)C/C=C/C(=O)Nc1ccc(C(=O)Nc2cccc(Nc3nccc(-c4cccnc4)n3)c2)cc1
kinase still bound, per cent of control (FYN (human)): 100% | kinase still bound, per cent of control (MYO3B (human)): 100% | kinase still bound, per cent of control (PIP4K2C (human)): 0.8% | kinase still bound, per cent of control (PDGFRB (human)): 3.6% | kinase still bound, per cent of control (SRPK3 (human)): 28% | kinase still bound, per cent of control (EPHA4 (human)): 100% | kinase still bound, per cent of control (TEK (human)): 94% | kinase still bound, per cent of control (CDK13 (human)): 86% | kinase still bound, per cent of control (SRPK2 (human)): 100% | kinase still bound, per cent of control (ERBB3 (human)): 57% | kinase still bound, per cent of control (BLK (human)): 100% | kinase still bound, per cent of control [1]: 0.2% | kinase still bound, per cent of control (DYRK1B (human)): 24% | kinase still bound, per cent of control (AURKB (human)): 22% | kinase still bound, per cent of control (MARK2 (human)): 73% | kinase still bound, per cent of control (NTRK3 (human)): 65% | kinase still bound, per cent of control (TSSK1B (human)): 100% | kinase still bound, per cent of control (NTRK1 (human)): 60% | kinase still bound, per cent of control (CASK (human)): 98% | kinase still bound, per cent of control (EPHB3 (human)): 75% | kinase still bound, per cent of control (CAMK1G (human)): 64% | kinase still bound, per cent of control (SNRK (human)): 66% | kinase still bound, per cent of control (SIK3 (human)): 64% | kinase still bound, per cent of control (YSK4 (human)): 0.1% | kinase still bound, per cent of control (AKT1 (human)): 100% | kinase still bound, per cent of control (DSTYK (human)): 100% | kinase still bound, per cent of control (NEK3 (human)): 17% | kinase still bound, per cent of control (CLK2 (human)): 2.2% | kinase still bound, per cent of control (MAP4K1 (human)): 100% | kinase still bound, per cent of control (ACVR2A (human)): 53% | kinase still bound, per cent of control (PTK2 (human)): 100% | kinase still bound, per cent of control (PTK6 (human)): 100% | kinase still bound, per cent of control (EPHA7 (human)): 100% | kinase still bound, per cent of control (MAP4K2 (human)): 9% | kinase still bound, per cent of control (MAP2K2 (human)): 87% | kinase still bound, per cent of control (RIOK2 (human)): 9.6% | kinase still bound, per cent of control (AAK1 (human)): 5.2% | kinase still bound, per cent of control (CSNK1E (human)): 56% | kinase still bound, per cent of control (DMPK (human)): 64% | kinase still bound, per cent of control (ABL2 (human)): 100%
